Patent publication US20100292231A1, “Indazole Compounds for Treating Inflammatory Disorders, Demyelinating Disorders and Cancers” (priority 2007, published 2010)
Like-named read-outs stand apart in the source and are kept apart here.

Key:
Assay in all cases: SelectScreen kinase specificity survey
Type in all cases: biochemical
[1] = target: T1, PIM2 (Homo sapiens, UniProt Q9P1W9); conditions: estimated, abridged dose response curve, read-out: Kinase inhibitory activity EC50
T1 construct: purchased Invitrogen, Inc. (SelectScreen platform)
T1 sequence (Q9P1W9 whole entry): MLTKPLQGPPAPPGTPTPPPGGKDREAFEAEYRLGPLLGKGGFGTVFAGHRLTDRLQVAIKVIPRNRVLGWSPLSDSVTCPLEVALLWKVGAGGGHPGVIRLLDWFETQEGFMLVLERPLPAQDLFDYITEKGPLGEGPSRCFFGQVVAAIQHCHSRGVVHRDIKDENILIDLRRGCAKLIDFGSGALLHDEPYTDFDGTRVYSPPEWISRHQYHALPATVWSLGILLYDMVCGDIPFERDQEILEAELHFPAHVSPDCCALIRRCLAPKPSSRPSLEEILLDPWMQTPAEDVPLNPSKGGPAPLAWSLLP
Protocol: (§1) Testing of the compounds described in this invention was carried out using the SelectScreen™ platform from Invitrogen, Inc. (Carlsbad. Calif., USA) and the details of its performance are readily viewed via the web by linking to: http://www.invitrogen.com/downloads/SelectScrn_Brochure.pdf.
(§2) Briefly, the approach is based on treating each specific kinase with a unique substrate and optical reporter system in the presence of ATP at 100 micromolar. In controls, the substrate is phosphorylated and a baseline optimal response is recorded.
(§3) The compounds were then re-tested by adding graded amounts of putative inhibitor which were added in 5 separate increments to generate a dose response curve. The latter is obtained by fitting to a 4 parameter Hill equation, a sigmoid saturation equation.
(§4) The same assay system described in Example 2 can be applied in the determination of kinase specificity. It is well understood by medicinal chemists in the development of kinase inhibitors that the resulting molecules often lack specificity. Not only are homologous kinases inhibited by the same class of compounds, but also non-homologous kinases can be affected by allosteric, induced, activated vs inactivated conformation, and protein folding interactions with the putative inhibitor, which otherwise had been designed to be specific. These off target effects are difficult to predict and can only be ruled in or out by empirically surveying a large set of kinases. It is also understood that changes to scaffolds and variation in their chemical decorations may influence the extent of promiscuity in the patterns of kinase inhibition across kinase classes.
(§5) The following experiment was conducted to address this issue. The indazole compound (IV), described in Example 2 and representative of the new genus was tested along with Symadex against a panel of 230 kinases representative of all known kinases classes. Included in the survey were the Flt3, its mutant, and close relatives in the Class III receptor tyrosine kinase class, together with serine-threonine kinases and atypical kinases many of which share no homology of active site with Flt3 as shown, for example, in the respective “genecard” for each kinase and available for inspection at on the web at http://www.genecards.org/.
(§6) Table 3 lists the estimated EC50 values from an abridged dose response curve for Symadex (C-1311) and CF-123. The kinases are listed alphabetically by Group and Family.

[2] = target: T2, EGFR (ErbB1) L861Q (Homo sapiens, UniProt P00533, L861Q); conditions: estimated, abridged dose response curve, read-out: Kinase inhibitory activity EC50
T2 construct: purchased Invitrogen (SelectScreen service)
T2 sequence (P00533 25-1210 L861Q): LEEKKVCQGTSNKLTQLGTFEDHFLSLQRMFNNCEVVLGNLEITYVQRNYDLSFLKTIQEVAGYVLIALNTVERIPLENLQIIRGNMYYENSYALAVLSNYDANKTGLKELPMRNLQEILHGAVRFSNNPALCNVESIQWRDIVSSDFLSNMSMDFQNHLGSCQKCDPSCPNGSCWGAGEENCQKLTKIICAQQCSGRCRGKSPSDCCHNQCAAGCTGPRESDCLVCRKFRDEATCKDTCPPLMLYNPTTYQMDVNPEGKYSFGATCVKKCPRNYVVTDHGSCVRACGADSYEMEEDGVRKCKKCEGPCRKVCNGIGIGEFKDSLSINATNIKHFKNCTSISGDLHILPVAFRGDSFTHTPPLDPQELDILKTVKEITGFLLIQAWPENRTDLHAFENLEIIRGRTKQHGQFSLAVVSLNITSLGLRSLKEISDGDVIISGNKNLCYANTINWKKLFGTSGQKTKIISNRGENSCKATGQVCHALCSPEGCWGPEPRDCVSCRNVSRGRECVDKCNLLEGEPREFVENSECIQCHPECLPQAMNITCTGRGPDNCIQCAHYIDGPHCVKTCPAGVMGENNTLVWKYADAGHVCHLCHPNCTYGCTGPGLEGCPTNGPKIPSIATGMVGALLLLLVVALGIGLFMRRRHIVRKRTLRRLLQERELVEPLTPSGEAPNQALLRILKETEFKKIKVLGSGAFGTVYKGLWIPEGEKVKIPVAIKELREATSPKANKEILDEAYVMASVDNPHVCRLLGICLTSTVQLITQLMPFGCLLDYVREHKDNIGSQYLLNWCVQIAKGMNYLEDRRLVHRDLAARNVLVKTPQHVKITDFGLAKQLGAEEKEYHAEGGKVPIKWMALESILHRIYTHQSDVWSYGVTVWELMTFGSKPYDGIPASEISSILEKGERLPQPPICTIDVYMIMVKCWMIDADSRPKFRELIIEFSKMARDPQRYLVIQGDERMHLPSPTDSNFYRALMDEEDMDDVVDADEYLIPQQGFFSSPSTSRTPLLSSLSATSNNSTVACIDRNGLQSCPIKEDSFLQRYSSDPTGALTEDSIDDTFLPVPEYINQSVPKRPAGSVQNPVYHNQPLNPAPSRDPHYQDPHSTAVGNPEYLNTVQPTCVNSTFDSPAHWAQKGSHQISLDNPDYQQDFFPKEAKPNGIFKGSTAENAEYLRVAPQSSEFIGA
Protocol: as §1, §2, §3, §4, §5, §6

[3] = target: T3, PRKCG (PKC gamma) (Homo sapiens, UniProt P05129); conditions: estimated, abridged dose response curve, read-out: Kinase inhibitory activity EC50
T3 construct: purchased Invitrogen, Inc. (SelectScreen platform)
Protocol: as §1, §2, §3, §4, §5, §6

[4] = target: T4, STK22B (TSSK2) (Homo sapiens, UniProt Q96PF2); conditions: estimated, abridged dose response curve, read-out: Kinase inhibitory activity EC50
T4 construct: purchased Invitrogen, Inc. (SelectScreen platform)
Protocol: as §1, §2, §3, §4, §5, §6

[5] = target: T5, JAK3 (Homo sapiens, UniProt P52333); conditions: estimated, abridged dose response curve, read-out: Kinase inhibitory activity EC50
T5 construct: purchased Invitrogen (SelectScreen platform)
T5 sequence (P52333 whole entry): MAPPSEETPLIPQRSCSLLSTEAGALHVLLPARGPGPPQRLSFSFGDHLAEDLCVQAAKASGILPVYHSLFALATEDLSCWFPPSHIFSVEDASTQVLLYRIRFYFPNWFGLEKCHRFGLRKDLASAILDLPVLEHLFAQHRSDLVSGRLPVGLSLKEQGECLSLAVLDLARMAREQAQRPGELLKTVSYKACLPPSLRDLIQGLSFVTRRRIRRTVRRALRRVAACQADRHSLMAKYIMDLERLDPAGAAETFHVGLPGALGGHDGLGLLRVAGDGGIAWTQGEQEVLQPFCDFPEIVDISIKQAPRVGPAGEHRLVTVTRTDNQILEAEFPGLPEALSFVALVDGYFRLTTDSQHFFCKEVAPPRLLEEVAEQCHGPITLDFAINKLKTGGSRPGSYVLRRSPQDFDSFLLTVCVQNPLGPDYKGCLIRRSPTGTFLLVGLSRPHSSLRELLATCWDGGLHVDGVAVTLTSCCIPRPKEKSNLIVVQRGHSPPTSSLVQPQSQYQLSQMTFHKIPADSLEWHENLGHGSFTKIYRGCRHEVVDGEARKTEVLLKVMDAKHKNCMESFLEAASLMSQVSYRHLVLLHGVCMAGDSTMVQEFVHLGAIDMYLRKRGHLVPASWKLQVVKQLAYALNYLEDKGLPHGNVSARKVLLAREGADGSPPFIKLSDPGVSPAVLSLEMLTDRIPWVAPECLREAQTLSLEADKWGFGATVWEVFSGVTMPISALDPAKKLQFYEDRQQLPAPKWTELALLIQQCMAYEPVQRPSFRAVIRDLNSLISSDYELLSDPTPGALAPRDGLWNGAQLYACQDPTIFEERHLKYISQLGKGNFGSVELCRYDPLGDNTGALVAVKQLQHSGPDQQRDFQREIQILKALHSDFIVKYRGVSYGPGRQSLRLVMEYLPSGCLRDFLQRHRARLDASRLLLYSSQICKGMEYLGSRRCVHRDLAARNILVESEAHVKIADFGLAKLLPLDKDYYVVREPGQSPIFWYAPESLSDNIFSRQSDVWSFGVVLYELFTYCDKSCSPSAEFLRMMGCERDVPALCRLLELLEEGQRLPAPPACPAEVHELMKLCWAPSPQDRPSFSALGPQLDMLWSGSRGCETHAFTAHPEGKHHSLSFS
Protocol: as §1, §2, §3, §4, §5, §6

[6] = target: T6, PTK6 (Brk) (Homo sapiens, UniProt Q13882); conditions: estimated, abridged dose response curve, read-out: Kinase inhibitory activity EC50
T6 construct: purchased Invitrogen (SelectScreen)
Protocol: as §1, §2, §3, §4, §5, §6

[7] = target: T7, FGR (Homo sapiens, UniProt P09769); conditions: estimated, abridged dose response curve, read-out: Kinase inhibitory activity EC50
T7 construct: purchased Invitrogen (SelectScreen)
Protocol: as §1, §2, §3, §4, §5, §6

[8] = target: T8, SGK2 (Homo sapiens, UniProt Q9HBY8); conditions: estimated, abridged dose response curve, read-out: Kinase inhibitory activity EC50
T8 construct: purchased Invitrogen, Inc. (SelectScreen platform)
Protocol: as §1, §2, §3, §4, §5, §6

[9] = target: T9, FRK (PTK5) (Homo sapiens, UniProt P42685); conditions: estimated, abridged dose response curve, read-out: Kinase inhibitory activity EC50
T9 construct: purchased Invitrogen (SelectScreen)
Protocol: as §1, §2, §3, §4, §5, §6

[10] = target: T10, FLT3 (Homo sapiens, UniProt P36888); conditions: estimated, abridged dose response curve, read-out: Kinase inhibitory activity EC50
T10 construct: purchased Invitrogen (SelectScreen platform)
T10 sequence (P36888 27-993): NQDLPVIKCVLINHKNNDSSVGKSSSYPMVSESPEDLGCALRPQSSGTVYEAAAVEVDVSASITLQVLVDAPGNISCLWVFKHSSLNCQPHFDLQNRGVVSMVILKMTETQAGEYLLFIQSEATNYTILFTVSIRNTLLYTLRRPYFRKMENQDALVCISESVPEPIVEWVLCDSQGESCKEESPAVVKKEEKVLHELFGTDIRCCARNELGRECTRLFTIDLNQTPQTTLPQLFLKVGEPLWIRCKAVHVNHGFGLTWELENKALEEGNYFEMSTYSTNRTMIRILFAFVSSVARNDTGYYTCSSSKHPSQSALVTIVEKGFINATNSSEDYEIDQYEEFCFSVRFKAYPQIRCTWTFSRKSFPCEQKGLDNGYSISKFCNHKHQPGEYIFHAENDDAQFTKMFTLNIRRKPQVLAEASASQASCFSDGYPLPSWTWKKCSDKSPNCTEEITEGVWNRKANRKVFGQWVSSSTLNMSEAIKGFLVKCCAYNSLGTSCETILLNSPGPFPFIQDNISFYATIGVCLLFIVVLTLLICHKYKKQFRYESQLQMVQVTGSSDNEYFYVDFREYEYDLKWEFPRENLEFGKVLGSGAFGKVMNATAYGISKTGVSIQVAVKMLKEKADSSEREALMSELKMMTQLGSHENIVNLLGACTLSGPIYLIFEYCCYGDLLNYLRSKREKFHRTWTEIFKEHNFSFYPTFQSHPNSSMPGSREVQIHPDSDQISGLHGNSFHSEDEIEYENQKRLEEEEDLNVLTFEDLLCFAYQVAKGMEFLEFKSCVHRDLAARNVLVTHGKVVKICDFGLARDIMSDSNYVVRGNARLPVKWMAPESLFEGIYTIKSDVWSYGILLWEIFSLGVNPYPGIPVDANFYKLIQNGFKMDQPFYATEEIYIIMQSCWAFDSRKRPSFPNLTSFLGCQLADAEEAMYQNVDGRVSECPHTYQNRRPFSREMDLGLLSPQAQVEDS
Protocol: as §1, §2, §3, §4, §5, §6

[11] = target: T11, SRPK2 (Homo sapiens, UniProt P78362); conditions: estimated, abridged dose response curve, read-out: Kinase inhibitory activity EC50
T11 construct: purchased Invitrogen, Inc. (SelectScreen service)
T11 sequence (P78362 whole entry): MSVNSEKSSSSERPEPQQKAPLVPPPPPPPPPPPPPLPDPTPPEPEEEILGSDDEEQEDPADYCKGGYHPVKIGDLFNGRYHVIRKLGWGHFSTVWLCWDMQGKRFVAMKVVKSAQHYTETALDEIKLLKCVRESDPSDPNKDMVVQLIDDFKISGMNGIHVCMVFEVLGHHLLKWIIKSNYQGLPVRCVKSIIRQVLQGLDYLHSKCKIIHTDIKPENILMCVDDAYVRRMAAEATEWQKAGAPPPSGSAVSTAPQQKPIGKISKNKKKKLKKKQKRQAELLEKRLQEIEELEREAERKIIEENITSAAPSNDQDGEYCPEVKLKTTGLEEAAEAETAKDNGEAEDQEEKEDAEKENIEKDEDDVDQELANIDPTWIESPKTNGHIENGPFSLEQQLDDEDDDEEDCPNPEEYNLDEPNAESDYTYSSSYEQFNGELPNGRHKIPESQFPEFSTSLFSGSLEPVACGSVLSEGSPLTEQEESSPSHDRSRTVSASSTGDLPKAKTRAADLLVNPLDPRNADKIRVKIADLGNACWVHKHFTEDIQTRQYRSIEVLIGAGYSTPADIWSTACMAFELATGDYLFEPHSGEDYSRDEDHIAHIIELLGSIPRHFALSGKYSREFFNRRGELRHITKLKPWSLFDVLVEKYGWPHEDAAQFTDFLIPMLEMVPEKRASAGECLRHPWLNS
Protocol: as §1, §2, §3, §4, §5, §6

[12] = target: T12, MAP3K9 (MLK1) (Homo sapiens, UniProt P80192); conditions: estimated, abridged dose response curve, read-out: Kinase inhibitory activity EC50
T12 construct: purchased Invitrogen, Inc. (SelectScreen platform)
Protocol: as §1, §2, §3, §4, §5, §6

[13] = target: T13, GRK6 (Homo sapiens, UniProt P43250)
T13 construct: purchased Invitrogen (SelectScreen platform)
Protocol: as §1, §2, §3, §4, §5, §6

[14] = target: T14, PLK1 (Homo sapiens, UniProt P53350); conditions: estimated, abridged dose response curve, read-out: Kinase inhibitory activity EC50
T14 construct: purchased Invitrogen, Inc. (SelectScreen service)
Protocol: as §1, §2, §3, §4, §5, §6

[15] = target: T15, TEK (Tie2) (Homo sapiens, UniProt Q02763); conditions: estimated, abridged dose response curve, read-out: Kinase inhibitory activity EC50
T15 construct: purchased Invitrogen (SelectScreen)
T15 sequence (Q02763 23-1124): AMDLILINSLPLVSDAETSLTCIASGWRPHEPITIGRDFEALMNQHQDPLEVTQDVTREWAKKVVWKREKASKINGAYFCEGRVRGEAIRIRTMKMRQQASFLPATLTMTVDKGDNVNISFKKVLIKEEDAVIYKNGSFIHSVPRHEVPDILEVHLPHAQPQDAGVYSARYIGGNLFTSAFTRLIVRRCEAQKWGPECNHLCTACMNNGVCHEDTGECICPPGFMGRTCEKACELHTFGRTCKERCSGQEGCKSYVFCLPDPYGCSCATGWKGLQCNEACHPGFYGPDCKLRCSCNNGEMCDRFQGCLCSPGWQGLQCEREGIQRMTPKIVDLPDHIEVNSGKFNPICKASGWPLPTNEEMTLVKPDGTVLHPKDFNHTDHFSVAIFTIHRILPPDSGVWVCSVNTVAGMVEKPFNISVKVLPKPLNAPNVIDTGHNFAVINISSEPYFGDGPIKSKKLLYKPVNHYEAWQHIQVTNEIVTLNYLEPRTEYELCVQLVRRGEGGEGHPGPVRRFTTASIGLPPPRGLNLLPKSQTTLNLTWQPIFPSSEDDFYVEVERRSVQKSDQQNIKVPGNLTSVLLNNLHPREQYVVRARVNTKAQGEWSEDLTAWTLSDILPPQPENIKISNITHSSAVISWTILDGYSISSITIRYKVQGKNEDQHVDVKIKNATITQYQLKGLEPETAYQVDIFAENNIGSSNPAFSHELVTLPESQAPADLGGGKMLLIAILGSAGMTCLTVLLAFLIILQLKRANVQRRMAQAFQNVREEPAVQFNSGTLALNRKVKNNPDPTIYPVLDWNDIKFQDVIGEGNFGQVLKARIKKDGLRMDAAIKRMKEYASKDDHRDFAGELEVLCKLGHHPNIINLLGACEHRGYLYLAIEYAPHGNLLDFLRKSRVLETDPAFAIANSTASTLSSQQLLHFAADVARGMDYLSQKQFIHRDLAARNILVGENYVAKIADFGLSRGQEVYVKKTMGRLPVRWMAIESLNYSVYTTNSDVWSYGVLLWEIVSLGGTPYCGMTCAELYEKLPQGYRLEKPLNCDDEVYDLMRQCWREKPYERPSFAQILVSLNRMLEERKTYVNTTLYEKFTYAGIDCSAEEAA
Protocol: as §1, §2, §3, §4, §5, §6

[16] = target: T16, MAP2K1 (MEK1) (Homo sapiens, UniProt Q02750); conditions: estimated, abridged dose response curve, read-out: Kinase inhibitory activity EC50
T16 construct: purchased Invitrogen (SelectScreen platform)
T16 sequence (Q02750 whole entry): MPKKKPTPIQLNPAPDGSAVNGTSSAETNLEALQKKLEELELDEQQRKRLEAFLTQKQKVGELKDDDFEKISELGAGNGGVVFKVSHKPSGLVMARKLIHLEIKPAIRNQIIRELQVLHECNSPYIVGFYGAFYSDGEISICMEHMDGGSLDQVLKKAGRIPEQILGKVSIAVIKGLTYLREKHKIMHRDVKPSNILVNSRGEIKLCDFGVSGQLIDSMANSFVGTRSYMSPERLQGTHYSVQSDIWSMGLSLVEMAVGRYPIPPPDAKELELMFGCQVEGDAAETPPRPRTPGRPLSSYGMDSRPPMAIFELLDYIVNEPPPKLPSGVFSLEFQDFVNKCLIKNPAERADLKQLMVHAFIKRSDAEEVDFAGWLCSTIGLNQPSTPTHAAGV
Protocol: as §1, §2, §3, §4, §5, §6

EC50 ([13]; GRK6, estimated, abridged dose response curve, read-out: Kinase inhibitory activity EC50) [µM] | SMILES | EC50 [1] [µM] | EC50 [2] [µM] | EC50 [3] [µM] | EC50 [4] [µM] | EC50 [5] [µM] | EC50 [6] [µM] | EC50 [7] [µM] | EC50 [8] [µM] | EC50 [9] [µM] | EC50 [10] [µM] | EC50 [11] [µM] | EC50 [12] [µM] | EC50 [14] [µM] | EC50 [15] [µM] | EC50 [16] [µM] | EC50 [13] [µM]
> 5 | CN(C)CCCNc1ccc2ncn3c4ccc5[nH]ncc5c4c(=O)c1c23 [Compound (IV)] | > 5 | > 5 | > 5 | > 5 | > 5 | > 5 | 0.367 | > 5 | 0.389 | 0.008 | > 5 | > 5 | > 5 | > 5 | > 5 | –
– | CCN(CC)CCNc1ccc2ncn3c4ccc(O)cc4c(=O)c1c23 [Symadex, 5-(2-(diethylamino)ethylamino)-8-hydroxy-6H-imidazo[4,5,1-de]acridin-6-one, reference compound] | > 5 | > 5 | 1.89 | > 5 | > 5 | > 5 | 1.27 | > 5 | 2.11 | 0.015 | > 5 | > 5 | > 5 | > 5 | > 5 | > 5
